Target: TNFα (Homo sapiens, UniProt P01375)
Experiment: TNFα FP Competitive Binding Assay
Conditions: 20 nM TNFα trimer, 1 nM OregonGreen488 probe, read-out: TNF IC50
Experimental: TNFα FP Competitive Binding Assay
Prepare 1× Assay Buffer (Water with 47 mil HEPES, 47 mM NaCl, 0.9 mM EDTA, 0.0071% Triton X-100) by adding 25 mL of 1 M HEPES, 5 mL of 5 M NaCl, 1 mL of 0.5 M EDTA, and 375 μL of a 10% Triton X-100 stock to a fresh 500 mL bottle of water.
Prepare fresh Assay Mixture containing 20 nM TNFα trimer (60 nM protein) and 1 nM 2′,7′-difluoro-3′,6′-dihydroxy-N-(2-(2-(2-((4-(isoquinolin-8-yl)-3-(4-(isoquinolin-8-yl)phenethoxy)benzyl)oxy)ethoxy)ethoxy)ethyl)-3-oxo-3H- spiro[isobenzofuran-1,9′-xanthene]-5-carboxamide probe in 1× Assay Buffer.
Top concentration of compounds, 10 mM in DMSO, dispensed in rows A-O in columns 1 and 13. Compounds are serially diluted 1:3 with DMSO in columns 2-12 or 14-24 using a 16-channel Matrix pipettor. Plates stored at −20° C.
Top concentration, 5 mM in DMSO, of compounds placed in rows A-O in columns 1 and 13.
Compounds are serially diluted 1:3 with DMSO in columns 2-12 or 14-24. Compound solutions are dispensed into replicate assay plates at 410 nL per well. Plates stored at 4° C.
TNFα FP Competitive Binding Assay Protocol • 1. Compound plates warmed to rt. • 2. Fresh Assay Mixture is prepared. • 3. Assay Mixture (20 μL) is dispensed each well of 384 assay plates using a Thermo Multidrop Combi or 16-channel Matrix pipettor. If Manual 12-point 1:3 Dilution Plates are to be tested, Assay Mix is dispensed into empty plates. Discovery Preps 12-point 1:3 Dilution Plates already contain 410 nL compound solution in DMSO. • 4. For Manual 12-point 1:3 Dilution Plates, 0.7 μL is manually transferred using a 16-channel Matrix pipettor to replicate assay plates containing 20 μL Assay Mixture for a final top compound concentration of […] (3.4% DMSO). • 5. For Discovery Preps 12-point 1:3 Dilution Plates, 20 μL Assay Mixture added the 410 nL compound solution already in the plates yields a final top compound concentration of 100 μM (2.0% DMSO). • 6. Background subtraction controls are wells P1-P8 containing only Assay Buffer. The low % inhibition controls are wells P9-P16 containing only Assay Mix. The high % inhibition are wells P17-P24 containing only 1 nM 2′,7′-difluoro-3′,6′-dihydroxy-N-(2-(2-(2-((4-(isoquinolin-8-yl)-3-(4-(isoquinolin-8-yl)phenethoxy)benzyl)oxy)ethoxy)ethoxy)ethyl)-3-oxo-3H-spiro[isobenzofuran-1,9′-xanthene]-5-carboxamide probe in 1× Assay Buffer. • 7. Plates are incubated at rt for 18-24 h in […] (CO2 is off). • 8. Prior to reading the assay, the plates are placed in a dark cabinet to equilibrate at rt for one hour. • 9. Background-subtracted fluorescence polarization (mP) is measured using a PerkinElmer Envision plate reader. • 10. Raw data is entered into Assay Explorer and dose-response curves are generated using a variable slope curve.

Chain of TNFα (P01375 77-233 limits assumed): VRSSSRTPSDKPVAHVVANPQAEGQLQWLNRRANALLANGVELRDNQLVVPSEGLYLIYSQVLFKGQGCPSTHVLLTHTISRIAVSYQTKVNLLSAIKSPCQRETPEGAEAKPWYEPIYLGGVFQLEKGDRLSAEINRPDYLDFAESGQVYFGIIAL

Row | SMILES | IC50
1 | COC[C@H]1CCCN1c1ncc(-c2ccc3c(=O)n4n(c3c2)[C@@H](c2ccccc2OC(F)F)CC4)cn1 (single isomer, unassigned) [Example 1.5] | 1000 to 10000 nM
2 | C[C@@H]1CN(c2ncc(-c3ccc4c(=O)n5n(c4c3)[C@@H](c3ccccc3OC(F)F)CC5)cn2)CCN1C(=O)CO (single isomer, unassigned) [Example 6.4] | < 1000 nM
3 | COC[C@H]1CCCN1c1ncc(-c2ccc3c(c2)[C@H]2[C@@H](c4ccccc4OC(F)F)CCN2C3=O)cn1 (single isomer, unassigned) [Example 10.4] | > 10000 nM
4 | O=C1NC[C@H]2CN(c3ncc(-c4ccc5c(c4)[C@H]4[C@@H](c6ccccc6OC(F)F)CCN4C5=O)cn3)CCN12 (single isomer, unassigned) [Example 11.2] | < 1000 nM
5 | O=c1c2ccc(-c3cnc(N4CCOCC4)nc3)cc2n2n1CCC2c1ccccc1OC(F)F (stereo not drawn) [Example 1, 3-(2-(Difluoromethoxy)phenyl)-6-(2-morpholinopyrimidin-5-yl)-2,3-dihydropyrazolo[1,2-a]indazol-9(1H)-one] | < 1000 nM
6 | O=C1C[C@@H](CNc2ncc(-c3ccc4c(=O)n5n(c4c3)[C@@H](c3ccccc3OC(F)F)CC5)cn2)CN1 (single isomer, unassigned) [Example 4.3] | 1000 to 10000 nM
7 | Cc1ccc(OC(F)F)c([C@@H]2CCn3c(=O)c4ccc(-c5cnc(C(C)(C)O)nc5)cc4n32)c1 [Example 14.2] | < 1000 nM
8 | CC(=O)N1CCN(c2ncc(-c3ccc4c(=O)n5n(c4c3)[C@@H](c3ccccc3OC(F)F)CC5)cn2)[C@H](C)C1 [Example 6.5, (R)-6-(2-((R)-4-acetyl-2-methylpiperazin-1-yl)pyrimidin-5-yl)-3-(2-(difluoromethoxy)phenyl)-2,3-dihydropyrazolo[1,2-a]indazol-9(1H)-one] | < 1000 nM
9 | Cc1ccc(OC(F)F)c([C@H]2CCn3c(=O)c4ccc(-c5cnc(C(C)(C)O)nc5)cc4n32)c1 (single isomer, unassigned) [Example 15.2] | < 1000 nM
10 | CC(C)(O)c1ncc(-c2cc3c(cc2F)c(=O)n2n3[C@@H](c3ccccc3OC(F)F)CC2)cn1 (single isomer, unassigned) [Example 12.1] | < 1000 nM
11 | O=C1C[C@@H](CNc2ncc(-c3ccc4c(=O)n5n(c4c3)[C@H](c3ccccc3OC(F)F)CC5)cn2)CN1 (single isomer, unassigned) [Example 4.4] | < 1000 nM
12 | O=c1c2ccc(-c3cnc(N4CCOCC4)nc3)cc2n2n1CC[C@@H]2c1ccccc1OC(F)F (single isomer, unassigned) [Example 1.1] | < 1000 nM
13 | O=c1c2ccc(-c3cnc(N4CCOCC4)nc3)cc2n2n1CCC2c1ccccc1 (stereo not drawn) [Example 8.2, 6-(2-morpholinopyrimidin-5-yl)-3-phenyl-2,3-dihydropyrazolo[1,2-a]indazol-9(1H)-one] | 1000 to 10000 nM
14 | O=c1c2ccc(-c3cnc(N4CCOCC4)nc3)cc2n2n1CCCC2c1ccccc1OC(F)F (stereo not drawn) [Example 7.1, 6-(2-(difluoromethoxy)phenyl)-3-(2-morpholinopyrimidin-5-yl)-8,9-dihydro-6H-pyridazino[1,2-a]indazol-11(7H)-one] | < 1000 nM
15 | Cc1cccc(C2CCn3c(=O)c4ccc(-c5cnc(N6CCOCC6)nc5)cc4n32)c1C#N (stereo not drawn) [Example 8.1, 2-methyl-6-(6-(2-morpholinopyrimidin-5-yl)-9-oxo-1,2,3,9-tetrahydropyrazolo[1,2-a]indazol-3-yl)benzonitrile] | 1000 to 10000 nM
16 | O=c1c2ccc(-c3cnc(N4CCO[C@H](CO)C4)nc3)cc2n2n1CC[C@@H]2c1ccccc1OC(F)F (single isomer, unassigned) [Example 3.1] | < 1000 nM
17 | CC(C)n1nccc1C1CCn2c(=O)c3ccc(-c4cnc(N5CCOCC5)nc4)cc3n21 (stereo not drawn) [Example 8.5, 3-(1-isopropyl-1H-pyrazol-5-yl)-6-(2-morpholinopyrimidin-5-yl)-2,3-dihydropyrazolo[1,2-a]indazol-9(1H)-one] | > 10000 nM
18 | O=C1NC[C@@H]2CN(c3ncc(-c4ccc5c(=O)n6n(c5c4)[C@H](c4ccccc4OC(F)F)CC6)cn3)CCN12 (single isomer, unassigned) [Example 5.2] | < 1000 nM

Row | SMILES | IC50
19 | COc1ccc(CO)cc1C1CCn2c(=O)c3ccc(-c4cnc(N5CCOCC5)nc4)cc3n21 (stereo not drawn) [Example 19, 3-(5-(Hydroxymethyl)-2-methoxyphenyl)-6-(2-morpholinopyrimidin-5-yl)-2,3-dihydropyrazolo[1,2-a]indazol-9(1H)-one] | 1000 to 10000 nM
20 | COC[C@H]1CCCN1c1ncc(-c2ccc3c(=O)n4n(c3c2)[C@H](c2ccccc2OC(F)F)CC4)cn1 (single isomer, unassigned) [Example 1.4] | 1000 to 10000 nM
21 | O=c1c2ccc(-c3cnc(N4CCC(O)CC4)nc3)cc2n2n1CCCC2c1ccccc1OC(F)F (stereo not drawn) [Example 7.2, 6-(2-(difluoromethoxy)phenyl)-3-(2-(4-hydroxypiperidin-1-yl)pyrimidin-5-yl)-8,9-dihydro-6H-pyridazino[1,2-a]indazol-11(7H)-one] | 1000 to 10000 nM
22 | Cc1ccc(OC(F)F)c([C@@H]2CCn3c(=O)c4cc(F)c(-c5cnc(C(C)(C)O)nc5)cc4n32)c1 (single isomer, unassigned) [Example 13.2] | < 1000 nM
23 | Cc1nc(C(C)(C)O)ncc1-c1ccc2c(=O)n3n(c2c1)[C@@H](c1ccccc1OC(F)F)CC3 [Example 6.6] | < 1000 nM
24 | COC[C@H]1CCCN1c1ncc(-c2ccc3c(c2)[C@@H]2[C@H](c4ccccc4OC(F)F)CCN2C3=O)cn1 (single isomer, unassigned) [Example 10.3] | 1000 to 10000 nM
25 | O=c1c2ccc(-c3cnc(N4CCO[C@H](CO)C4)nc3)cc2n2n1CC[C@H]2c1ccccc1OC(F)F (single isomer, unassigned) [Example 2.1] | < 1000 nM
26 | O=C1NC[C@@H]2CN(c3ncc(-c4ccc5c(c4)[C@H]4[C@@H](c6ccccc6OC(F)F)CCN4C5=O)cn3)CCN12 (single isomer, unassigned) [Example 11.1] | < 1000 nM
27 | O=c1c2ccc(-c3cnc(N4CCC5(CC4)CC(O)C5)nc3)cc2n2n1CC[C@@H]2c1ccccc1OC(F)F (single isomer, unassigned) [Example 4.7] | < 1000 nM
28 | O=C1NC[C@H]2CN(c3ncc(-c4ccc5c(=O)n6n(c5c4)[C@H](c4ccccc4OC(F)F)CC6)cn3)CCN12 (single isomer, unassigned) [Example 5.1] | < 1000 nM
29 | O=c1c2ccc(-c3cnc(N4CCO[C@@H](CO)C4)nc3)cc2n2n1CC[C@H]2c1ccccc1OC(F)F (single isomer, unassigned) [Example 1.9] | < 1000 nM
30 | O=c1c2ccc(-c3cnc(N4CCC5(CC4)CC(O)C5)nc3)cc2n2n1CC[C@H]2c1ccccc1OC(F)F (single isomer, unassigned) [Example 4.8] | < 1000 nM
31 | O=C(O)C1CCN(c2ncc(-c3ccc4c(=O)n5n(c4c3)C(c3ccccc3OC(F)F)CC5)cn2)CC1 (stereo not drawn) [Example 1.3, 1-(5-(3-(2-(difluoromethoxy)phenyl)-9-oxo-1,2,3,9-tetrahydropyrazolo[1,2-a]indazol-6-yl)pyrimidin-2-yl)piperidine-4-carboxylic acid] | 1000 to 10000 nM
32 | Cc1ccc(OC(F)F)c([C@H]2CCn3c(=O)c4ccc(-c5cnc(N6CCN7C(=O)NC[C@H]7C6)nc5)cc4n32)c1 (single isomer, unassigned) [Example 15.1] | < 1000 nM
33 | O=c1c2ccc(-c3cnc(N[C@@H]4CCOC4)nc3)cc2n2n1CC[C@@H]2c1ccccc1OC(F)F (single isomer, unassigned) [Example 1.6] | 1000 to 10000 nM
34 | COc1c(C#N)cccc1C1CCn2c(=O)c3ccc(-c4cnc(N5CCOCC5)nc4)cc3n21 (stereo not drawn) [Example 8.4, 2-methoxy-3-(6-(2-morpholinopyrimidin-5-yl)-9-oxo-1,2,3,9-tetrahydropyrazolo[1,2-a]indazol-3-yl)benzonitrile] | 1000 to 10000 nM
35 | CC(C)(O)c1ncc(-c2ccc3c(c2)[C@H]2[C@@H](c4ccccc4OC(F)F)CCN2C3=O)cn1 (single isomer, unassigned) [Example 10.2] | 1000 to 10000 nM
36 | O=C1C[C@H](CNc2ncc(-c3ccc4c(=O)n5n(c4c3)[C@H](c3ccccc3OC(F)F)CC5)cn2)CN1 (single isomer, unassigned) [Example 4.6] | 1000 to 10000 nM

— patent US10273238B2, “Indazolones as modulators of TNF signaling” (AbbVie Inc., priority 2015, dated 2019)
